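Assay format: 96-well plates, 48-hour exposure. At the GI50, growth is halved.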 Active and inactive are the calls of the source. Cut-off read from the data, not from the text of the source: active = GI50 up to about 1.1 µM and inactive = higher.
Assays:
Assay in all cases: NCI-60 cell line screen, 48 h
[1] = tested on: SR
[2] = tested on: NCI-H23
[3] = tested on: SW-620
[4] = tested on: HOP-92
[5] = tested on: SK-OV-3
[6] = tested on: MDA-MB-435
[7] = tested on: OVCAR-5
[8] = tested on: COLO 205
[9] = tested on: HT-29
[10] = tested on: SN12C
[11] = tested on: NCI-H460
[12] = tested on: DU-145
[13] = tested on: BT-549
[14] = tested on: HCC 2998
[15] = tested on: UO-31
[16] = tested on: EKVX
[17] = tested on: Hs-578T
[18] = tested on: SK-MEL-5
[19] = tested on: SF-295
[20] = tested on: LOX IMVI
[21] = tested on: SNB-19
[22] = tested on: MDA-MB-231
[23] = tested on: RPMI-8226
[24] = tested on: T47D
[25] = tested on: HCT-116
[26] = tested on: OVCAR-8
[27] = tested on: U-251
[28] = tested on: SK-MEL-2
[29] = tested on: NCI-H522
[30] = tested on: SK-MEL-28
[31] = tested on: PC-3
[32] = tested on: MDA-N
[33] = tested on: A498
[34] = tested on: HOP-62
[35] = tested on: HCT-15
[36] = tested on: 786-0
[37] = tested on: HL-60
[38] = tested on: CAKI-1
[39] = tested on: Malme-3M
[40] = tested on: K562
[41] = tested on: OVCAR-4
[42] = tested on: CCRF-CEM
[43] = tested on: NCI/ADR-RES
[44] = tested on: MOLT-4
[45] = tested on: SF-268
[46] = tested on: UACC-257
[47] = tested on: ACHN
[48] = tested on: KM12
[49] = tested on: UACC-62
[50] = tested on: RXF 393
[51] = tested on: TK-10
[52] = tested on: IGROV-1
[53] = tested on: M14
[54] = tested on: NCI-H226
[55] = tested on: A549
[56] = tested on: MCF7

In the case of `CNC(=O)Nn1c(SC)nc2ccccc21`, the GI50 [1] is reported as > 100 µM (inactive), the GI50 [2] is reported as > 100 µM (inactive) and the GI50 [3] is reported as > 100 µM (inactive). For the same compound, the GI50 [4] was > 100 µM (inactive), the GI50 [5] was > 100 µM (inactive) and the GI50 [6] was > 100 µM (inactive). For the same compound, the GI50 [7] was > 100 µM (inactive), the GI50 [8] was > 100 µM (inactive) and the GI50 [9] was > 100 µM (inactive). The GI50 [10] was > 100 µM (inactive), the GI50 [11] was > 100 µM (inactive) and the GI50 [12] was > 100 µM (inactive). The GI50 [13] was > 100 µM (inactive), the GI50 [14] was > 100 µM (inactive) and the GI50 [15] was > 100 µM (inactive). For the same compound, the GI50 [16] was > 100 µM (inactive), the GI50 [17] was > 100 µM (inactive) and the GI50 [18] was > 100 µM (inactive). The GI50 [19] was > 100 µM (inactive), the GI50 [20] was > 100 µM (inactive) and the GI50 [21] was > 100 µM (inactive). The GI50 [22] was > 100 µM (inactive), the GI50 [23] was > 100 µM (inactive) and the GI50 [24] was > 100 µM (inactive). For the same compound, the GI50 [25] was > 100 µM (inactive), the GI50 [26] was > 100 µM (inactive) and the GI50 [27] was > 100 µM (inactive). The GI50 [28] was > 100 µM (inactive), the GI50 [29] was > 100 µM (inactive) and the GI50 [30] was > 100 µM (inactive). The GI50 [31] was > 100 µM (inactive), the GI50 [32] was > 100 µM (inactive) and the GI50 [33] was > 100 µM (inactive). For the same compound, the GI50 [34] was > 100 µM (inactive), the GI50 [35] was over 100 µM and the GI50 [36] was > 100 µM (inactive). For the same compound, the GI50 [37] was > 100 µM (inactive), the GI50 [38] was > 100 µM (inactive) and the GI50 [39] was > 100 µM (inactive). For the same compound, the GI50 [40] was > 100 µM (inactive), the GI50 [41] was > 100 µM (inactive) and the GI50 [42] was > 100 µM (inactive). The GI50 [43] was > 100 µM (inactive), the GI50 [44] was > 100 µM (inactive) and the GI50 [45] was > 100 µM (inactive). The GI50 [46] was > 100 µM (inactive), the GI50 [47] was > 100 µM (inactive) and the GI50 [48] was > 100 µM (inactive). The GI50 [49] was > 100 µM (inactive), the GI50 [50] was > 100 µM (inactive) and the GI50 [51] was > 100 µM (inactive). For the same compound, the GI50 [52] was > 100 µM (inactive), the GI50 [53] was > 100 µM (inactive) and the GI50 [54] was > 100 µM (inactive). For the same compound, the GI50 [55] was > 100 µM (inactive) and the GI50 [56] was > 100 µM (inactive).
